Assay results: PMC11351612, “Heteronuclear Complexes with Promising Anticancer Activity against Colon Cancer” (Biomedicines, 2024)

Experiments:
[1] = target: T1, bovine serum albumin (BSA) (Bos taurus, UniProt P02769); experiment: BSA fluorescence quenching (Stern-Volmer); assay type: binding; settings: [BSA] = 50 μM, complex 0-30 μM, 298 K; for Stern-Volmer quenching constant KSV: λexc 295 nm
T1 construct: purchased Sigma Aldrich (St. Louis, MO, USA)
Procedure: Interaction with bovine serum albumin. BSA was purchased from Sigma Aldrich (St. Louis, MO, USA). A 2 mM stock solution of BSA was prepared by dissolving the commercial powder in PBS at pH 7.4. Afterwards, the real concentration was confirmed using UV-vis spectroscopy (ε280 nm = 43,824 M^−1cm^−1). The heteronuclear complexes were dissolved in DMSO to achieve 6 mM stock solutions, and six aliquots of 2.5 μL were added to a 50 μM solution of BSA in PBS placed in a quartz cuvette of 1 cm optical path. The final concentrations of the complexes in the cuvette were 0, 5, 10, 15, 20, 25, and 30 μM. The fluorescence spectra were recorded on a Jobin-Yvon-Horiba fluorolog FL-3-11 spectrometer. The samples were excited at 295 nm and the emission spectra were recorded in a range from 310 to 450 nm.
The samples were measured 4 min after every addition of the aliquots of the complexes. The fluorescence intensities of the PBS and the complexes were irrelevant under the described conditions. The data were analysed using the Stern–Volmer equation F0/F = 1 + KSV [gold complex] = 1 + Kqτ0[complex] to obtain the Stern–Volmer quenching constant (KSV) and the quenching rate constant (Kq). The binding constant (Kb) was quantified by using the Stern–Volmer equation: log {(F0 − F)/F} = log Kb + n log [complex].
We have carried out fluorescence and UV-Vis spectroscopic experiments to study the affinity of [Cu{Au(Spy)(PTA)}2]PF6 (1) and [Zn{Au(PTA)(Spy)}2](NO3)2 (2) for albumin. These experiments are based on the quenching of the intrinsic tryptophan fluorescence emission undergone by BSA in the presence of increasing concentrations of the trinuclear complexes, which act as quenchers. The intrinsic fluorescence of BSA is susceptible to alterations in its local environment, and the binding or simple electrostatic interaction of molecules can result in modifications to its emission spectrum. Fluorescence quenching experiments have been carried out, observing the emission of tryptophan at 341 nm upon excitation at 295 nm and increasing concentrations of compounds 2 and 3 with BSA. […] The addition of increasing amounts of the complexes to a BSA solution results in a significant reduction in fluorescence intensity without any shift in the emission maximum. The fluorescence data have been analysed using the Stern–Volmer equation so that the binding of the complexes to BSA and the consequent quenching of the emission can be quantified (Table 3). The corresponding plot F0/F versus [complex] (F and F0 are the corresponding intensities in the presence and the absence of the quencher agent) gives a linear plot in both cases (Figure 1B), characteristic of the presence of a single mechanism of quenching, either static or dynamic. […]

Caco-2/PD7 cells = experiment: MTT cell proliferation assay, Caco-2/PD7; assay type: cell-based, human; settings: for Cytotoxic activity compared with mononuclear precursor [Au(Spy)(PTA)] (fold): Caco-2 PD7 and TC7 clones, ratio of IC50; for IC50: MTT, 72 h, mean ± SE of at least three determinations
Procedure: Cell culture. Human colon cancer Caco-2 cells (PD7 and TC7 clones) were kindly provided by Dr. Edith Brot-Laroche (Université Pierre et Marie Curie-Paris 6, UMR S 872, Les Cordeliers, Lyon, France) and grown in Dulbecco’s Modified Eagles medium (DMEM) (Gibco Invitrogen, Paisley, UK) supplemented with 20% foetal bovine serum (FBS), 1% non-essential amino acids, 1% streptomycin (1000 μg/mL), 1% penicillin (1000 μg/mL), and 1% amphotericin (250 U/mL). Caco-2 cells were maintained at 37 °C in a humidified atmosphere at 5% CO2.
Cell proliferation assay. Cell proliferation was measured using the 3-(4,5-dimethyl-2-thiazoyl)-2,5-diphenyltetrazolium bromide (MTT) assay, as previously described. Caco-2/TC7 cells were seeded in a 96-well plate at a density of 4000 cells/well and grown for 24 h before being treated with each complex or DMSO (used as control). After 72 h of incubation with the complexes, 10 μL of MTT (5 mg/mL) were added and incubation was continued at 37 °C for 3 h. Inversion removed the medium and 100 μL of DMSO were added to each well. Absorbance at 560 nm, proportional to many living cells, was measured by spectrophotometry (SPECTROstar Nano, BMG LABTECH, Ortenberg, Germany) and converted into a percentage (%) of growth inhibition.
The antiproliferative effects of the mononuclear and heteropolinuclear complexes were tested on two different Caco-2 cancer cell lines (PD7 and […]). […] Caco-2 cells of both PD7 and TC7 clones were exposed to increasing concentrations of the assayed compounds through dose–response/cell viability analysis. The results in terms of the IC50 parameter (Table 4) were obtained by using the MTT protocol.

[2] = tested on: differentiated Caco-2/PD7 cells; experiment: Cell viability of differentiated (enterocyte-like) Caco-2/PD7 cells; assay type: cell-based, human; settings: for Cell viability of differentiated Caco-2 cells at 2 × IC50: differentiated Caco-2/PD7, concentration = 2 × IC50, 72 h
Procedure: For cell viability studies of differentiated (enterocyte-like) cells, Caco-2/PD7 cells were seeded on 96-well plates at a density of 4 × 10^3 cells/well and incubated for approximately 10–15 days, changing the culture medium every 3 days, up to reaching confluence—the moment in which the cells were treated with the complexes at concentrations equal to their mean IC50 and 2 × IC50 values.
It is well known that the Caco-2 cell line undergoes spontaneous differentiation into enterocytic-like cells when it reaches confluency. As a result, these cells become polarised, expressing apical and basolateral surfaces with established tight junctions. This allowed for the evaluation of the cytotoxic impact of the complexes on differentiated cells (acting as noncarcinogenic) and a comparison with the viability of undifferentiated cells. Thus, the toxicity of the two heteronuclear compounds has been studied by cell viability experiments by treatment of Caco-2/PD7 cells after differentiation with complexes 1 and 2 at the corresponding concentrations equivalent to IC50 and 2 × IC50 values for 72 h. The results expressed as the % of cell viability observed after treatment with the complexes (or 100% for non-treated control cells) are summarised in Figure S16 (Supplementary Materials). […] However, the cell viability is around 90% even when the cells are treated with double the IC50 concentration.

T1 sequence (P02769 25-607): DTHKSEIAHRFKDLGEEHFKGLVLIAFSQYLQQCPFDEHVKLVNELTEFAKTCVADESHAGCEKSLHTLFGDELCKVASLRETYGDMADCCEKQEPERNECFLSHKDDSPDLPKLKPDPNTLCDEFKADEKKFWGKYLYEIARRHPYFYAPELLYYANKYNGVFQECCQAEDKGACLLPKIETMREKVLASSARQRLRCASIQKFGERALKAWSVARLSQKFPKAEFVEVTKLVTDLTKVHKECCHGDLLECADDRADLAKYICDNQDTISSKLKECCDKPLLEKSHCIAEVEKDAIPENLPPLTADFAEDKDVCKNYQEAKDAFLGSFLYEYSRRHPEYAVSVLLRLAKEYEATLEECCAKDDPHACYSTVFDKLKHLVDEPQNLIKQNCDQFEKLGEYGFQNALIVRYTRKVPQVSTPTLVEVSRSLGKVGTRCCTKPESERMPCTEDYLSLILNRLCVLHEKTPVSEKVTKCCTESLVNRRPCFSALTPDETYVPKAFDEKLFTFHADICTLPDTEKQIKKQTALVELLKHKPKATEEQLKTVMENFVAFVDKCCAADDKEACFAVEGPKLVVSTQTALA

Substance | number of binding sites n [1] | Stern-Volmer quenching constant KSV [1] | Cytotoxic activity compared with mononuclear precursor [Au(Spy)(PTA)] (fold) (Caco-2/PD7 cells; listed as Au2Cu compound (2)) | IC50 (Caco-2/PD7 cells) | Cell viability of differentiated Caco-2 cells at 2 × IC50 [2] | Cytotoxic activity compared with mononuclear precursor [Au(Spy)(PTA)] (fold) (Caco-2/PD7 cells) | Cell viability of differentiated Caco-2 cells at IC50 ([2]; differentiated Caco-2/PD7, concentration = IC50, 72 h)
[Cu{Au(Spy)(PTA)}2]PF6 [compound 1] | 1.11 | 5730 M⁻¹ | 15 | 0.16 ± 0.02 µM | around 90% | – | –
[Zn{Au(PTA)(Spy)}2](NO3)2 [compound 2] | 0.95 | 1760 M⁻¹ | – | 2.18 ± 0.24 µM | 87.66 ± 2.85% | slight improvement | 92.14 ± 4.22%
